Measurements as given in ChEMBL document CHEMBL1201861, “Genomics of Drug Sensitity in Cancer screening data, Wellcome Trust Sanger Institute”.

Legend:
COR-L279 = experiment: SANGER: Inhibition of human COR-L279 cell growth in a cell viability assay.; type: functional, cell-based; conditions: Homo sapiens, COR-L279
CPC-N = experiment: cells; type: functional, cell-based, Homo sapiens; conditions: Homo sapiens, CPC-N;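 also: growth inhibition of CPC-N cells, with a cell viability assay as the readout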
Description: SANGER: Inhibition of human CPC-N cell growth in a cell viability assay.

ECC4 = experiment: cells; type: functional, cell-based, Homo sapiens; conditions: Homo sapiens, ECC4;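 also: growth inhibition of ECC4 cells, read out with a cell viability assay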
Description: SANGER: Inhibition of human ECC4 cell growth in a cell viability assay.

EVSA-T = experiment: cells; type: functional, cell-based, Homo sapiens; conditions: Homo sapiens, EVSA-T;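 also: growth inhibition of EVSA-T cells, read out with a cell viability assay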
Description: SANGER: Inhibition of human EVSA-T cell growth in a cell viability assay.

GDM-1 = experiment: cells; type: functional, cell-based, Homo sapiens; conditions: Homo sapiens, GDM-1; read-out: IC50;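 also: cell viability readout used to measure growth inhibition of human GDM-1 cells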
Description: SANGER: Inhibition of human GDM-1 cell growth in a cell viability assay.

IST-SL2 = experiment: cells; type: functional, cell-based, Homo sapiens; conditions: Homo sapiens, IST-SL2;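 also: growth inhibition of human IST-SL2 cells, read out by a cell viability assay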
Description: SANGER: Inhibition of human IST-SL2 cell growth in a cell viability assay.

LB647-SCLC = experiment: cells; type: functional, cell-based, Homo sapiens; conditions: Homo sapiens, LB647-SCLC;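 also: cell growth inhibition, read out by a viability assay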
Description: SANGER: Inhibition of human LB647-SCLC cell growth in a cell viability assay.

NB7 = experiment: cells; type: functional, cell-based, Homo sapiens; conditions: Homo sapiens, NB7;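 also: growth inhibition of NB7 cells, read out with a cell viability assay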
Description: SANGER: Inhibition of human NB7 cell growth in a cell viability assay.

NCI-H1436 = experiment: cells; type: functional, cell-based, Homo sapiens; conditions: Homo sapiens, NCI-H1436;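 also: growth suppression of human NCI-H1436 cells, determined with a cell viability readout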
Description: SANGER: Inhibition of human NCI-H1436 cell growth in a cell viability assay.

NCI-H345 = experiment: cells; type: functional, cell-based, Homo sapiens; conditions: Homo sapiens, NCI-H345;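 also: growth inhibition of NCI-H345 cells measured with a cell viability assay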
Description: SANGER: Inhibition of human NCI-H345 cell growth in a cell viability assay.

NCI-H889 = experiment: cells; type: functional, cell-based, Homo sapiens; conditions: Homo sapiens, NCI-H889;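 also: cell growth inhibition of the cell line, read out with a viability assay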
Description: SANGER: Inhibition of human NCI-H889 cell growth in a cell viability assay.

RL = experiment: cells; type: functional, cell-based, Homo sapiens; conditions: Homo sapiens, RL
Description: SANGER: Inhibition of human RL cell growth in a cell viability assay.

SCC-3 = experiment: cells; type: functional, cell-based, Homo sapiens; conditions: Homo sapiens, SCC-3;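 also: cell viability assay measuring inhibition of SCC-3 cell growth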
Description: SANGER: Inhibition of human SCC-3 cell growth in a cell viability assay.

SIG-M5 = experiment: cells; type: functional, cell-based, Homo sapiens; conditions: Homo sapiens, SIG-M5;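 also: cell viability assay read-out, measuring how strongly growth of cultured human SIG-M5 cells is inhibited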
Description: SANGER: Inhibition of human SIG-M5 cell growth in a cell viability assay.

SU-DHL-1 = experiment: SANGER: Inhibition of human SU-DHL-1 cell growth in a cell viability assay.; type: functional, cell-based; conditions: Homo sapiens, SU-DHL-1
SUP-T1 = experiment: cells; type: functional, cell-based, Homo sapiens; conditions: Homo sapiens, SUP-T1;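 also: growth inhibition of human SUP-T1 cells, read out as cell viability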
Description: SANGER: Inhibition of human SUP-T1 cell growth in a cell viability assay.

THP-1 = experiment: cells; type: functional, cell-based, Homo sapiens; conditions: Homo sapiens, THP-1;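 also: growth inhibition of THP-1 cells, read out via a cell viability assay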
Description: SANGER: Inhibition of human THP-1 cell growth in a cell viability assay.

COR-L105 = experiment: cells; type: functional, cell-based; conditions: Homo sapiens
Description: SANGER: Inhibition of human COR-L105 cell growth in a cell viability assay.

ChaGo-K-1 = experiment: cells; type: functional, cell-based; conditions: Homo sapiens;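 also: growth inhibition of ChaGo-K-1 cells, read out with a cell viability assay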
Description: SANGER: Inhibition of human ChaGo-K-1 cell growth in a cell viability assay.

D-392MG = experiment: cells; type: functional, cell-based; conditions: Homo sapiens
Daoy = experiment: cells; type: functional, cell-based; conditions: Homo sapiens;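 also: daoy cell growth inhibition, read out as cell viability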
Description: SANGER: Inhibition of human Daoy cell growth in a cell viability assay.

ESS-1 = experiment: cells; type: functional, cell-based; conditions: Homo sapiens;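 also: growth inhibition of human ESS-1 cells, read out by a cell viability assay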
Description: SANGER: Inhibition of human ESS-1 cell growth in a cell viability assay.

G-402 = experiment: cells; type: functional, cell-based; conditions: Homo sapiens
Description: SANGER: Inhibition of human G-402 cell growth in a cell viability assay.

GMS-10 = experiment: cells; type: functional, cell-based; conditions: Homo sapiens;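 also: growth inhibition of GMS-10 cells, read out as cell viability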
Description: SANGER: Inhibition of human GMS-10 cell growth in a cell viability assay.

GP5d = experiment: cells; type: functional, cell-based; conditions: Homo sapiens;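 also: growth inhibition of human GP5d cells, read out with a cell viability assay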
Description: SANGER: Inhibition of human GP5d cell growth in a cell viability assay.

HCC1806 = experiment: cells; type: functional, cell-based; conditions: Homo sapiens;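 also: growth inhibition of the cancer cell line, determined with a cell viability assay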
Description: SANGER: Inhibition of human HCC1806 cell growth in a cell viability assay.

HLE = experiment: cells; type: functional, cell-based; conditions: Homo sapiens;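 also: growth inhibition of human HLE cells, read out by a cell viability assay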
Description: SANGER: Inhibition of human HLE cell growth in a cell viability assay.

HT1197 = experiment: cells; type: functional, cell-based, HT-1197; conditions: Homo sapiens
Description: SANGER: Inhibition of human HT-1197 cell growth in a cell viability assay.

KYSE-450 = experiment: cells; type: functional, cell-based; conditions: Homo sapiens;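 also: cell growth inhibition measured by a viability assay in human KYSE-450 cells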
Description: SANGER: Inhibition of human KYSE-450 cell growth in a cell viability assay.

LCLC-103H cell line = experiment: cells; type: functional, cell-based; conditions: Homo sapiens
Description: SANGER: Inhibition of human LCLC-103H cell growth in a cell viability assay.

M14 = experiment: cells; type: functional, cell-based; conditions: Homo sapiens;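 also: growth inhibition of M14 cells, read out with a cell viability assay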
Description: SANGER: Inhibition of human M14 cell growth in a cell viability assay.

MFE-280 = experiment: cells; type: functional, cell-based; conditions: Homo sapiens;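 also: growth inhibition of MFE-280 cells, determined with a cell viability readout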
Description: SANGER: Inhibition of human MFE-280 cell growth in a cell viability assay.

MHH-ES-1 = experiment: cells; type: functional, cell-based; conditions: Homo sapiens
Description: SANGER: Inhibition of human MHH-ES-1 cell growth in a cell viability assay.

NCI-H1437 = experiment: cells; type: functional, cell-based; conditions: Homo sapiens;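 also: growth inhibition of human NCI-H1437 cells, read out by a cell viability assay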
Description: SANGER: Inhibition of human NCI-H1437 cell growth in a cell viability assay.

NCI-H1755 = experiment: cells; type: functional, cell-based; conditions: Homo sapiens;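 also: cell viability readout used to measure growth inhibition of NCI-H1755 cells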
Description: SANGER: Inhibition of human NCI-H1755 cell growth in a cell viability assay.

NCI-H2052 = experiment: cells; type: functional, cell-based; conditions: Homo sapiens;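 also: growth inhibition of NCI-H2052 cells, read out with a cell viability assay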
Description: SANGER: Inhibition of human NCI-H2052 cell growth in a cell viability assay.

NCI-H2122 = experiment: cells; type: functional, cell-based; conditions: Homo sapiens;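 also: growth inhibition of the cells, read out with a cell viability assay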
Description: SANGER: Inhibition of human NCI-H2122 cell growth in a cell viability assay.

NCI-H2170 = experiment: cells; type: functional, cell-based; conditions: Homo sapiens;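 also: cell viability assay measuring growth inhibition of human NCI-H2170 cancer cells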
Description: SANGER: Inhibition of human NCI-H2170 cell growth in a cell viability assay.

NCI-H2452 = experiment: cells; type: functional, cell-based; conditions: Homo sapiens;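 also: growth inhibition of NCI-H2452 cells, read out with a cell viability assay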
Description: SANGER: Inhibition of human NCI-H2452 cell growth in a cell viability assay.

NCI-H650 = experiment: cells; type: functional, cell-based; conditions: Homo sapiens;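 also: growth inhibition of NCI-H650 cells, read out by a viability assay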
Description: SANGER: Inhibition of human NCI-H650 cell growth in a cell viability assay.

RMG-I = experiment: cells; type: functional, cell-based; conditions: Homo sapiens;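 also: growth inhibition of human RMG-I cells, read out with a cell viability assay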
Description: SANGER: Inhibition of human RMG-I cell growth in a cell viability assay.

SW1573 = experiment: cells; type: functional, cell-based; conditions: Homo sapiens;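 also: growth inhibition of SW1573 cells, read out with a cell viability assay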
Description: SANGER: Inhibition of human SW1573 cell growth in a cell viability assay.

SW1783 = experiment: cells; type: functional, cell-based; conditions: Homo sapiens
Description: SANGER: Inhibition of human SW1783 cell growth in a cell viability assay.

SW756 = experiment: cells; type: functional, cell-based; conditions: Homo sapiens;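 also: growth inhibition of human SW756 cells, read out with a cell viability assay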
Description: SANGER: Inhibition of human SW756 cell growth in a cell viability assay.

T47D = experiment: cells; type: functional, cell-based; conditions: Homo sapiens;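 also: growth inhibition of human T47D cells, measured with a cell viability assay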
Description: SANGER: Inhibition of human T47D cell growth in a cell viability assay.

5637 = experiment: cells; type: functional, cell-based; conditions: Homo sapiens
Description: SANGER: Inhibition of human 5637 cell growth in a cell viability assay.

A673 = experiment: cells; type: functional, cell-based; conditions: Homo sapiens;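 also: growth inhibition of human A673 cells, read out through a cell viability assay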
Description: SANGER: Inhibition of human A673 cell growth in a cell viability assay.

ACHN = experiment: cells; type: functional, cell-based; conditions: Homo sapiens;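 also: cell viability read-out used to gauge how strongly growth of human ACHN cells is suppressed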
Description: SANGER: Inhibition of human ACHN cell growth in a cell viability assay.

ASPC1 = experiment: cells; type: functional, cell-based; conditions: Homo sapiens;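 also: growth inhibition of AsPC-1 cells, read out with a cell viability assay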
Description: SANGER: Inhibition of human AsPC-1 cell growth in a cell viability assay.

BFTC-905 = experiment: cells; type: functional, cell-based; conditions: Homo sapiens
Description: SANGER: Inhibition of human BFTC-905 cell growth in a cell viability assay.

BXPC-3 = experiment: cells; type: functional, cell-based; conditions: Homo sapiens;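 also: growth inhibition of human BxPC-3 cells, read out by a cell viability assay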
Description: SANGER: Inhibition of human BxPC-3 cell growth in a cell viability assay.

CAL-51 = experiment: cells; type: functional, cell-based; conditions: Homo sapiens;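 also: human CAL-51 cell line, growth inhibition read out via a cell viability assay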
Description: SANGER: Inhibition of human CAL-51 cell growth in a cell viability assay.

CAL-62 = experiment: cells; type: functional, cell-based; conditions: Homo sapiens;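 also: growth inhibition of CAL-62 cells, read out with a cell viability assay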
Description: SANGER: Inhibition of human CAL-62 cell growth in a cell viability assay.

CAL-85-1 = experiment: cells; type: functional, cell-based; conditions: Homo sapiens;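 also: growth inhibition of human CAL-85-1 cells, read out with a cell viability assay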
Description: SANGER: Inhibition of human CAL-85-1 cell growth in a cell viability assay.

U2OS = experiment: cells; type: functional, cell-based, U-2-OS; conditions: Homo sapiens;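 also: growth inhibition of human U-2-OS cells, determined with a cell viability assay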
Description: SANGER: Inhibition of human U-2-OS cell growth in a cell viability assay.

YAPC = experiment: cells; type: functional, cell-based; conditions: Homo sapiens;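 also: growth inhibition of YAPC cells, measured with a cell viability assay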
Description: SANGER: Inhibition of human YAPC cell growth in a cell viability assay.

CAPAN-1 = experiment: cells; type: functional, cell-based; conditions: Homo sapiens;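 also: growth suppression of CAPAN-1 cells, read out by a cell viability assay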
Description: SANGER: Inhibition of human CAPAN-1 cell growth in a cell viability assay.

C=CC(=O)N1CCCC(Nc2nc(Nc3ccc(N(C)C(=O)CC)cc3)nc3[nH]cnc23)C1 (stereo not given)
IC50 (COR-L279): > 10.2 µM | IC50 (CPC-N): > 10.2 µM | IC50 (ECC4): > 10.2 µM | IC50 (EVSA-T): > 10.2 µM | IC50 (GDM-1): > 10.2 µM | IC50 (IST-SL2): > 10.2 µM | IC50 (LB647-SCLC): > 10.2 µM | IC50 (NB7): > 10.2 µM | IC50 (NCI-H1436): > 10.2 µM | IC50 (NCI-H345): > 10.2 µM | IC50 (NCI-H889): > 10.2 µM | IC50 (RL): > 10.2 µM | IC50 (SCC-3): > 10.2 µM | IC50 (SIG-M5): > 10.2 µM | IC50 (SU-DHL-1): > 10.2 µM | IC50 (SUP-T1): > 10.2 µM | IC50 (THP-1): > 10.2 µM

COc1ccc(N(C(=O)Oc2c(C)cccc2C)c2ccnc(Nc3ccc(N4CCN(C)CC4)cc3)n2)c(OC)c1
IC50 (COR-L279): > 5.12 µM | IC50 (CPC-N): > 5.12 µM | IC50 (ECC4): > 5.12 µM | IC50 (EVSA-T): > 5.12 µM | IC50 (GDM-1): > 5.12 µM | IC50 (IST-SL2): 1.47 µM | IC50 (LB647-SCLC): > 5.12 µM | IC50 (NB7): > 5.12 µM | IC50 (NCI-H1436): > 5.12 µM | IC50 (NCI-H345): > 5.12 µM | IC50 (NCI-H889): > 5.12 µM | IC50 (RL): > 5.12 µM | IC50 (SCC-3): > 5.12 µM | IC50 (SIG-M5): > 5.12 µM | IC50 (SU-DHL-1): > 5.12 µM | IC50 (SUP-T1): > 5.12 µM | IC50 (THP-1): > 5.12 µM

Cc1cc(N2CCOCC2)cc2[nH]c(-c3c(NC[C@@H](O)c4cccc(Cl)c4)cc[nH]c3=O)nc12
IC50 (COR-L279): > 5.12 µM | IC50 (CPC-N): 3.59 µM | IC50 (ECC4): > 5.12 µM | IC50 (EVSA-T): > 5.12 µM | IC50 (GDM-1): > 5.12 µM | IC50 (IST-SL2): > 5.12 µM | IC50 (LB647-SCLC): > 5.12 µM | IC50 (NB7): > 5.12 µM | IC50 (NCI-H1436): > 5.12 µM | IC50 (NCI-H345): > 5.12 µM | IC50 (NCI-H889): > 5.12 µM | IC50 (RL): > 5.12 µM | IC50 (SCC-3): > 5.12 µM | IC50 (SIG-M5): 0.323 µM | IC50 (SU-DHL-1): > 5.12 µM | IC50 (SUP-T1): > 5.12 µM | IC50 (THP-1): > 5.12 µM

NC(=O)c1cccc(-c2cc(Nc3ccc(OC(F)(F)F)cc3)ncn2)c1
IC50 (COR-L279): > 1.28 µM | IC50 (CPC-N): > 1.28 µM | IC50 (ECC4): > 1.28 µM | IC50 (EVSA-T): > 1.28 µM | IC50 (GDM-1): > 1.28 µM | IC50 (IST-SL2): > 1.28 µM | IC50 (LB647-SCLC): > 1.28 µM | IC50 (NB7): > 1.28 µM | IC50 (NCI-H1436): > 1.28 µM | IC50 (NCI-H345): > 1.28 µM | IC50 (NCI-H889): > 1.28 µM | IC50 (RL): > 1.28 µM | IC50 (SCC-3): > 1.28 µM | IC50 (SIG-M5): > 1.28 µM | IC50 (SU-DHL-1): > 1.28 µM | IC50 (SUP-T1): > 1.28 µM | IC50 (THP-1): > 1.28 µM

CC1(C)CCC(c2ccc(Cl)cc2)=C(CN2CCN(c3ccc(C(=O)NS(=O)(=O)c4ccc(N[C@H](CCN5CCOCC5)CSc5ccccc5)c(S(=O)(=O)C(F)(F)F)c4)cc3)CC2)C1 [NAVITOCLAX]
IC50 (COR-L105): > 2 µM | IC50 (ChaGo-K-1): > 2 µM | IC50 (D-392MG): > 2 µM | IC50 (Daoy): > 2 µM | IC50 (ESS-1): > 2 µM | IC50 (G-402): > 2 µM | IC50 (GMS-10): > 2 µM | IC50 (GP5d): > 2 µM | IC50 (HCC1806): > 2 µM | IC50 (HLE): > 2 µM | IC50 (HT1197): > 2 µM | IC50 (KYSE-450): > 2 µM | IC50 (LCLC-103H cell line): > 2 µM | IC50 (M14): > 2 µM | IC50 (MFE-280): > 2 µM | IC50 (MHH-ES-1): > 2 µM | IC50 (NB7): > 2 µM | IC50 (NCI-H1437): > 2 µM | IC50 (NCI-H1755): > 2 µM | IC50 (NCI-H2052): 1.72 µM | IC50 (NCI-H2122): > 2 µM | IC50 (NCI-H2170): 1.06 µM | IC50 (NCI-H2452): > 2 µM | IC50 (NCI-H650): > 2 µM | IC50 (RMG-I): 0.495 µM | IC50 (SW1573): > 2 µM | IC50 (SW1783): > 2 µM | IC50 (SW756): > 2 µM | IC50 (T47D): > 2 µM | IC50 5637: > 2 µM | IC50 (A673): > 2 µM | IC50 (ACHN): > 2 µM | IC50 (ASPC1): > 2 µM | IC50 (BFTC-905): > 2 µM | IC50 (BXPC-3): > 2 µM | IC50 (CAL-51): > 2 µM | IC50 (CAL-62): > 2 µM | IC50 (CAL-85-1): > 2 µM | IC50 (U2OS): > 2 µM | IC50 (YAPC): > 2 µM | IC50 (CAPAN-1): > 2 µM

CS(=O)(=O)N1CCN(Cc2cc3nc(-c4cccc5[nH]ncc45)nc(N4CCOCC4)c3s2)CC1 [PICTILISIB]
IC50 (COR-L105): > 4 µM | IC50 (ChaGo-K-1): > 4 µM | IC50 (D-392MG): > 4 µM | IC50 (Daoy): > 4 µM | IC50 (ESS-1): > 4 µM | IC50 (G-402): 1.9 µM | IC50 (GMS-10): > 4 µM | IC50 (GP5d): > 4 µM | IC50 (HCC1806): > 4 µM | IC50 (HLE): > 4 µM | IC50 (HT1197): > 4 µM | IC50 (KYSE-450): > 4 µM | IC50 (LCLC-103H cell line): > 4 µM | IC50 (M14): 3.31 µM | IC50 (MFE-280): 0.418 µM | IC50 (MHH-ES-1): > 4 µM | IC50 (NB7): 0.39 µM | IC50 (NCI-H1437): > 4 µM | IC50 (NCI-H1755): > 4 µM | IC50 (NCI-H2052): > 4 µM | IC50 (NCI-H2122): > 4 µM | IC50 (NCI-H2170): > 4 µM | IC50 (NCI-H2452): > 4 µM | IC50 (NCI-H650): > 4 µM | IC50 (RMG-I): > 4 µM | IC50 (SW1573): 3.75 µM | IC50 (SW1783): > 4 µM | IC50 (SW756): > 4 µM | IC50 (T47D): 0.598 µM | IC50 5637: 2.71 µM | IC50 (A673): > 4 µM | IC50 (ACHN): > 4 µM | IC50 (ASPC1): > 4 µM | IC50 (BFTC-905): 1.13 µM | IC50 (BXPC-3): > 4 µM | IC50 (CAL-51): > 4 µM | IC50 (CAL-62): > 4 µM | IC50 (CAL-85-1): > 4 µM | IC50 (U2OS): 3.14 µM | IC50 (YAPC): > 4 µM | IC50 (CAPAN-1): > 4 µM
